Measurements from patent US20260022142A1, “MACROCYCLIC IMMUNOMODULATORS” (Bristol-Myers Squibb Company, priority 2022, published 2026).
Bridge positions count the residues as written; N and C are the ends. Square brackets hold non-standard residues; d marks the D form. Peptide text beside a SMILES is read from it. * marks the point of attachment. ξ: configuration not given here. Phe(4-COOH) = N[C@@H](Cc1ccc(C(=O)O)cc1)C(=O)O; Bip = N[C@@H](Cc1ccc(-c2ccccc2)cc1)C(=O)O; Morpholine(3S-CO) = O=C(O)[C@@H]1COCCN1; NH(CH2)14COOH = O=C(O)CCCCCCCCCCCCCCN*; Phe(3-Me) = Cc1cccc(C[C@H](N)C(=O)O)c1; Phe(4-F) = N[C@@H](Cc1ccc(F)cc1)C(=O)O; Phe(4-Me) = Cc1ccc(C[C@H](N)C(=O)O)cc1; Val(3-OH) = CC(C)(O)[C@H](N)C(=O)O; hArg = N=C(N)NCCCC[C@H](N)C(=O)O; 4Pal = N[C@@H](Cc1ccncc1)C(=O)O; Cha = N[C@@H](CC1CCCCC1)C(=O)O; Cit = NC(=O)NCCC[C@H](N)C(=O)O; Thr(3ξ) = CC(O)[C@H](N)C(=O)O; NMeNle = CCCC[C@H](NC)C(=O)O; Carboxymethyl = O=C(O)C*; Orn = NCCC[C@H](N)C(=O)O; Aun = NCCCCCCCCCCC(=O)O; Dab = NCC[C@H](N)C(=O)O; Dap = NC[C@H](N)C(=O)O; AEEA = NCCOCCOCC(=O)O; Piv = CC(C)(C)C(=O)*

Each molecule was assayed against T1, PD-1/PD-L1 interaction (PE-labeled human PD-L1-Ig binding to Jurkat cell line over-expressing human PD-1) (Homo sapiens, UniProt Q15116) (assay: Jurkat-PD-1 Cell Binding High-Content Screening Assay (CBA)). Settings: Jurkat cell line over-expressing human PD-1; PE-labeled PD-L1-Ig 20 nM final; read-out: Jurkat hPD1-PDL1 IC50.
T1 construct: expressed in transfected cells; host or cells: Jurkat
Type: cell-based
Procedure, shortened: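 Jurkat cells over-expressing human PD-1 (8×10^3 per well, DMEM/10% FCS) preincubated with compound 2 h at 37° C, then PE-labeled human PD-L1-Ig (20 nM final) added for 1 h. Cells fixed with paraformaldehyde, Hoechst-stained, and bound fluorescence quantified by high-content imaging.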

T1 sequence (Q15116 25-288): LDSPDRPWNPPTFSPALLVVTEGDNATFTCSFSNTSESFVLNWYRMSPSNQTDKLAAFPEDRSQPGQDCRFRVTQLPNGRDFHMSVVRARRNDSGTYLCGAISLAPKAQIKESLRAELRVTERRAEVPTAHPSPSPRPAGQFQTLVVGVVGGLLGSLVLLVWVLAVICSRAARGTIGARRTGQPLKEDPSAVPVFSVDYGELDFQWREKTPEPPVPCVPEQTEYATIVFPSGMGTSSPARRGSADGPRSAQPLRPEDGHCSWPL

Structure (SMILES)	IC50 [µM]
CCCC[C@H]1C(=O)N[C@@H](Cc2ccc(OCC(=O)O)cc2)C(=O)N[C@@H](CC(=O)O)C(=O)N[C@@H](Cc2cccc(C)c2)C(=O)N[C@@H](C(C)C)C(=O)N[C@@H](Cc2ccc(-c3ccccc3)cc2)C(=O)N[C@@H](CCCNC(N)=O)C(=O)N[C@@H](CCCN)C(=O)N[C@H](CC(C)C)C(=O)N[C@@H](CCN)C(=O)N[C@@H](CC2CCCCC2)C(=O)N[C@@H](C(C)C)C(=O)N[C@@H](C(C)O)C(=O)N[C@H](C(=O)N[C@@H](CCN)C(=O)NCCCCCCCCCCC(=O)O)CSCC(=O)N1C (stereo partly drawn) [Compound 3555] ({CH2CO}-[NMeNle]Y(Carboxymethyl)D[Phe(3-Me)]V[Bip][Cit][Orn][dL][Dab][Cha]V[Thr(3ξ)]C[Dab][Aun]-OH; thioether N-14)	0.0428
CC(C)C[C@H]1NC(=O)[C@H](CCCN)NC(=O)[C@H](Cc2ccc(O)cc2)NC(=O)[C@H](Cc2ccc(-c3ccccc3)cc2)NC(=O)[C@H](CCCCNC(=O)C(C)(C)C)NC(=O)[C@H](Cc2c[nH]c3ccccc23)NC(=O)[C@H](CC(=O)O)NC(=O)[C@H](Cc2ccc(OCC(=O)O)cc2)NC(=O)[C@H](C(C)O)NC(=O)CSC[C@@H](C(=O)NCCOCCOCC(=O)NCCCCCCCCCCC(=O)O)NC(=O)[C@H](CO)NC(=O)[C@H](Cc2cnc[nH]2)NC(=O)[C@H](CC2CCCCC2)NC(=O)[C@H](CCN)NC1=O (stereo partly drawn) [Compound 3699] ({CH2CO}-[Thr(3ξ)]Y(Carboxymethyl)DWK(Piv)[Bip]Y[Orn][dL][Dab][Cha]HSC[AEEA][Aun]-OH; thioether N-14)	0.0969
CC(C)C[C@@H]1NC(=O)[C@H](Cc2c[nH]c3ccccc23)NC(=O)[C@H](CC(=O)O)NC(=O)[C@H](Cc2ccc(OCC(=O)O)cc2)NC(=O)[C@H](CCN)NC(=O)CSC[C@@H](C(=O)NCCOCCOCC(=O)NCCCCCCCCCCC(=O)O)NC(=O)[C@H](C(C)O)NC(=O)[C@H](C(C)C)NC(=O)[C@H](CC2CCCCC2)NC(=O)[C@H](Cc2cnc[nH]2)NC(=O)[C@@H](CC(C)C)NC(=O)[C@H](CCCN)NC(=O)[C@H](C(C)C)NC(=O)[C@H](Cc2ccc(-c3ccccc3)cc2)NC1=O (stereo partly drawn) [Compound 3700] ({CH2CO}-[Dab]Y(Carboxymethyl)DWL[Bip]V[Orn][dL]H[Cha]V[Thr(3ξ)]C[AEEA][Aun]-OH; thioether N-14)	0.0567
CC(C)C[C@@H]1NC(=O)[C@H](Cc2c[nH]c3ccccc23)NC(=O)[C@H](CC(=O)O)NC(=O)[C@H](Cc2ccncc2)NC(=O)[C@H](Cc2ccc(OCC(=O)O)cc2)NC(=O)CSC[C@@H](C(=O)N2CCOC[C@H]2C(=O)NCCCCCCCCCCC(=O)O)NC(=O)[C@H](CCCNC(N)=O)NC(=O)[C@H](C(C)C)NC(=O)[C@H](CC2CCCCC2)NC(=O)[C@H](CCN)NC(=O)[C@@H](CC(C)C)NC(=O)[C@H](CCCN)NC(=O)[C@H](C(C)C)NC(=O)[C@H](Cc2ccc(-c3ccccc3)cc2)NC1=O [Compound 1227] ({CH2CO}-Y(Carboxymethyl)[4Pal]DWL[Bip]V[Orn][dL][Dab][Cha]V[Cit]C[Morpholine(3S-CO)][Aun]-OH; thioether N-14)	0.304
Cc1cccc(C[C@@H]2NC(=O)[C@H](CC(=O)O)NC(=O)[C@H](Cc3ccc(OCC(=O)O)cc3)NC(=O)[C@H](CN)NC(=O)CSC[C@@H](C(=O)N[C@@H](CCN)C(=O)NCCCCCCCCCCCCCCC(=O)O)NC(=O)[C@H](CO)NC(=O)[C@H](C(C)(C)O)NC(=O)[C@H](CC3CCCCC3)NC(=O)[C@H](CCN)NC(=O)[C@@H](CC(C)C)NC(=O)[C@H](CCCN)NC(=O)[C@H](Cc3ccc(OCC(=O)O)cc3)NC(=O)[C@H](Cc3ccc(-c4ccccc4)cc3)NC(=O)[C@H](Cc3ccc(OCC(=O)O)cc3)NC2=O)c1 [Compound 2223] ({CH2CO}-[Dap]Y(Carboxymethyl)D[Phe(3-Me)]Y(Carboxymethyl)[Bip]Y(Carboxymethyl)[Orn][dL][Dab][Cha][Val(3-OH)]SC[Dab]-{NH(CH2)14COOH}; thioether N-14)	0.28
Cc1cccc(C[C@@H]2NC(=O)[C@H](CC(=O)O)NC(=O)[C@H](Cc3ccc(OCC(=O)O)cc3)NC(=O)[C@H](C)NC(=O)CSC[C@@H](C(=O)N[C@@H](CCN)C(=O)NCCOCCOCC(=O)NCCOCCOCC(=O)NCCOCCOCC(=O)NCCCCCCCCCCCCCCC(=O)O)NC(=O)[C@H](CO)NC(=O)[C@H](C(C)(C)O)NC(=O)[C@H](CC3CCCCC3)NC(=O)[C@H](CCN)NC(=O)[C@@H](CC(C)C)NC(=O)[C@H](CCCN)NC(=O)[C@H](Cc3ccc(C(=O)O)cc3)NC(=O)[C@H](Cc3ccc(-c4ccccc4)cc3)NC(=O)[C@H](Cc3ccc(C(=O)O)cc3)NC2=O)c1 [Compound 3854] ({CH2CO}-AY(Carboxymethyl)D[Phe(3-Me)][Phe(4-COOH)][Bip][Phe(4-COOH)][Orn][dL][Dab][Cha][Val(3-OH)]SC[Dab][AEEA][AEEA][AEEA]-{NH(CH2)14COOH}; thioether N-14)	0.0452

These reach a lower IC50. Values come first.

IC50 [µM]	Structure (SMILES)
0.0341	CC(C)C[C@H]1NC(=O)[C@H](CCCN)NC(=O)[C@H](C(C)C)NC(=O)[C@H](Cc2ccc(-c3ccccc3)cc2)NC(=O)[C@H](C(C)C)NC(=O)[C@H](Cc2c[nH]c3ccccc23)NC(=O)[C@H](CC(=O)O)NC(=O)[C@H](Cc2ccc(OCC(=O)O)cc2)NC(=O)[C@H](CCCCNC(=N)N)NC(=O)CSC[C@@H](C(=O)N[C@@H](CCN)C(=O)NCCCCCCCCCCC(=O)O)NC(=O)[C@H](C(C)O)NC(=O)[C@H](C(C)C)NC(=O)[C@H](CC2CCCCC2)NC(=O)[C@H](Cc2cnc[nH]2)NC1=O (stereo partly drawn) [Compound 3151] ({CH2CO}-[hArg]Y(Carboxymethyl)DWV[Bip]V[Orn][dL]H[Cha]V[Thr(3ξ)]C[Dab][Aun]-OH; thioether N-14)
0.0277	Cc1cccc(C[C@@H]2NC(=O)[C@H](CC(=O)O)NC(=O)[C@H](Cc3ccc(OCC(=O)O)cc3)NC(=O)[C@H](CN)NC(=O)CSC[C@@H](C(=O)N[C@@H](CCCCN)C(=O)NCCCCCCCCCCC(=O)O)NC(=O)[C@H](CCCNC(N)=O)NC(=O)[C@H](C(C)C)NC(=O)[C@H](CC3CCCCC3)NC(=O)[C@H](CCN)NC(=O)[C@@H](CC(C)C)NC(=O)[C@H](CCCN)NC(=O)[C@H](CCCNC(N)=O)NC(=O)[C@H](Cc3ccc(-c4ccccc4)cc3)NC(=O)[C@H](C(C)C)NC2=O)c1 [Compound 2641] ({CH2CO}-[Dap]Y(Carboxymethyl)D[Phe(3-Me)]V[Bip][Cit][Orn][dL][Dab][Cha]V[Cit]CK[Aun]-OH; thioether N-14)
0.0206	Cc1cccc(C[C@@H]2NC(=O)[C@H](CC(=O)O)NC(=O)[C@H](Cc3ccc(OCC(=O)O)cc3)NC(=O)[C@H](CN)NC(=O)CSC[C@@H](C(=O)N[C@@H](CCN)C(=O)NCCCCCCCCCCC(=O)O)NC(=O)[C@H](CO)NC(=O)[C@H](C(C)C)NC(=O)[C@H](CC3CCCCC3)NC(=O)[C@H](CCN)NC(=O)[C@@H](CC(C)C)NC(=O)[C@H](CCCN)NC(=O)[C@H](Cc3ccc(O)cc3)NC(=O)[C@H](Cc3ccc(-c4ccccc4)cc3)NC(=O)[C@H](Cc3ccc(O)cc3)NC2=O)c1 [Compound 2712] ({CH2CO}-[Dap]Y(Carboxymethyl)D[Phe(3-Me)]Y[Bip]Y[Orn][dL][Dab][Cha]VSC[Dab][Aun]-OH; thioether N-14)
0.0129	Cc1ccc(C[C@@H]2NC(=O)[C@H](Cc3ccc(-c4ccccc4)cc3)NC(=O)[C@H](Cc3ccc(O)cc3)NC(=O)[C@H](Cc3cccc(C)c3)NC(=O)[C@H](CC(=O)O)NC(=O)[C@H](Cc3ccc(OCC(=O)O)cc3)NC(=O)[C@H](CN)NC(=O)CSC[C@@H](C(=O)N[C@@H](CCN)C(=O)NCCOCCOCC(=O)NCCCCCCCCCCC(=O)O)NC(=O)[C@H](CCCN)NC(=O)[C@H](C(C)C)NC(=O)[C@H](CC3CCCCC3)NC(=O)[C@H](CCN)NC(=O)[C@@H](CC(C)C)NC(=O)[C@H](CCCN)NC2=O)cc1 [Compound 2054] ({CH2CO}-[Dap]Y(Carboxymethyl)D[Phe(3-Me)]Y[Bip][Phe(4-Me)][Orn][dL][Dab][Cha]V[Orn]C[Dab][AEEA][Aun]-OH; thioether N-14)
0.0121	Cc1cccc(C[C@@H]2NC(=O)[C@H](CC(=O)O)NC(=O)[C@H](Cc3ccc(OCC(=O)O)cc3)NC(=O)[C@H](Cc3ccc(F)cc3)NC(=O)CSC[C@@H](C(=O)N[C@@H](CCN)C(=O)NCCOCCOCC(=O)NCCCCCCCCCCC(=O)O)NC(=O)[C@H](CCC(=O)O)NC(=O)[C@H](C(C)C)NC(=O)[C@H](CC3CCCCC3)NC(=O)[C@H](CCN)NC(=O)[C@@H](CC(C)C)NC(=O)[C@H](CCCN)NC(=O)[C@H](Cc3ccc(OCC(=O)O)cc3)NC(=O)[C@H](Cc3ccc(-c4ccccc4)cc3)NC(=O)[C@H](Cc3ccc(OCC(=O)O)cc3)NC2=O)c1 [Compound 3800] ({CH2CO}-[Phe(4-F)]Y(Carboxymethyl)D[Phe(3-Me)]Y(Carboxymethyl)[Bip]Y(Carboxymethyl)[Orn][dL][Dab][Cha]VEC[Dab][AEEA][Aun]-OH; thioether N-14)
0.0069	CC(C)C[C@H]1NC(=O)[C@H](CCCN)NC(=O)[C@H](C(C)C)NC(=O)[C@H](Cc2ccc(-c3ccccc3)cc2)NC(=O)[C@H](C(C)C)NC(=O)[C@H](Cc2c[nH]c3ccccc23)NC(=O)[C@H](CC(=O)O)NC(=O)[C@H](Cc2ccc(OCC(=O)O)cc2)NC(=O)[C@H](Cc2ccc(OCC(=O)O)cc2)NC(=O)CSC[C@@H](C(=O)NCC(=O)NCCOCCOCC(=O)N[C@@H](CCCN)C(=O)NCCCCCCCCCCC(=O)O)NC(=O)[C@H](CCCN)NC(=O)[C@H](C(C)C)NC(=O)[C@H](CC2CCCCC2)NC(=O)[C@H](CCN)NC1=O [Compound 3229] ({CH2CO}-Y(Carboxymethyl)Y(Carboxymethyl)DWV[Bip]V[Orn][dL][Dab][Cha]V[Orn]CG[AEEA][Orn][Aun]-OH; thioether N-14)
